Read-outs that look alike come from different tables or passages of the source.
Columns and labels:
cells = assay: 5% Toxicity concentration (concentration at which 5% or less cell death is seen)
[1] = molecular target: site 1 thymidylate synthetase RNA; conditions: CC bubble of site 1 thymidylate synthetase RNA; read-out: binding constant; cited from earlier work
HIV-1 TAR RNA = HIV-1 TAR RNA competition FRET binding assay (Tat peptide probe); conditions: 100 nM TAR RNA, 100 nM Tat peptide, 25° C., 60 min
Protocol: Before used, HIV-1 TAR RNA (5′-GGC AGA UCUGAG CCU GGG AGC UCU CUG CC-3′, Thermo Scientific) in 10 μM batch in sterile water was heated to 95° C. for 4.5 min, and then cooled rapidly in ice bath for 5 min. This snap-cooling causes the RNA to adopt the kinetically favored hairpin rather than thermodynamically favored duplexes.
The relative affinity of each polyamine for HIV-1 TAR RNA was determined using Fluorescence Resonance Energy Transfer (FRET)-based competitive binding assay with a fluorescein-labeled HIV-1 Tat peptide as described in the literature. The fluorescence experiments were performed with a Spectra Max Fluorimeter (Molecular Devices) at 25° C., with excitation and emission wavelengths of 495 and 570 nm, respectively. All samples were prepared in 96 well plates in 1×TK buffer (50 mM Tris, 20 mM KCl, pH=7.4) with 0.1% Trixton-100 (Sigma).
To a solution of 100 nM HIV-1 TAR RNA and 100 nM fluorescein-labeled HIV-1 Tat peptide, appropriate concentrations (0 nM to 100 μM) of the antagonists were added at 25° C.; total volume of the incubation solution was 80 μL. After 60 min, fluorescence changes of the sample solution were determined by the Spectra Max Fluorimeter Detector.

HIV = assay: Protection from HIV cytopathic effects; format: cell-based; conditions: for Maximum protection: maximum protection from HIV cytopathic effects, water control 2%; for concentration at which maximum protection achieved, microM: value in parentheses beside maximum protection
TAR [2] = conditions: ligands to TAR, from UV melting studies
Protocol: The bottom line represents the control which is TAR without any ligands. […] The reactions were done in the presence of 10 mM sodium cacodylate, 0.5 mM EDTA, 0.1 mM MgCl2 pH 7.0. The heating rate was 0.3° C./min.
(§1) UV melting studies of TAR were performed in the presence and absence of various ligands (FIG. 13).

HIV-1 RRE RNA = HIV-1 RRE RNA competition binding assay (fluorescence polarization, Rev peptide probe); conditions: 100 nM RRE RNA, 10 nM Rev peptide, 25° C., 1 hour; Table 16
Protocol: Before used, HIV-1 RRE RNA (5′-GGUCUGGGCGCAGCGCAAGCUGACGGUACAGGCC-3′, Thermo Scientific) in 10 μM batch in sterile water was heated to 95° C. for 3 min, and then cooled to ambient temperature over 1 hour.
The relative affinity of each compound for HIV-1 RRE RNA was determined using fluorescence polarization-based competitive binding assay with a fluorescein-labeled HIV-1 Rev peptide. The anisotropy experiments were performed with a Spectra Max Fluorimeter (Molecular Devices) at 25° C., with excitation and emission wavelengths of 485 and 525 nm, respectively. All samples were prepared in 96 well plates in binding buffer (30 mM Hepes, 100 mM KCl, 40 mM NaCl, 10 mM NH4OAc, 10 mM Guanidinium Hydrochloride, 2 mM MgCl2, 0.5 mM EDTA, pH 7.4) with 0.01% triton-X100 (Sigma). The binding data reported for each conjugate are the averages of 3˜5 individual measurements.
A solution of 100 nM RRE RNA and 10 nM fluorescein-labeled HIV-1 Rev peptide was incubated at 25° C. After 10 min, appropriate concentrations (0 nM to 500 μM) of the antagonists were added; total volume of the incubation solution was […]. After 1 hour, the amount of the dissociated fluorescent probe was determined by the Spectra Max fluorescence plate reader. The experimental dose-response data for a given antagonist were fit to a sigmoidal dose-response nonlinear regression model on GraphPad Prism 4.0 to afford the IC50 values for each conjugates (Table 16).

TAR RNA [3] = conditions: inhibition of Tat peptide binding to the TAR RNA; cited from earlier work
TAR [4] = conditions: argininamide binding site of TAR; read-out: binding constant; cited from earlier work
TAR RNA [5] = assay: UV melting of TAR RNA in presence of ligands (Tm, ΔTm); format: binding, HIV-1; conditions: Melting point stabilization of HIV-TAR RNA by Neo Neo dimers; Table 11
Protocol: The reactions were done in the presence of 10 mM sodium cacodylate, 0.5 mM EDTA, 0.1 mM MgCl2 pH 7.0. The heating rate was 0.3° C./min.
as §1

TAR [6] = conditions: binds TAR; read-out: affinity; cited from earlier work
TAR RNA [7] = assay: ITC titration of TAR RNA with Neomycin; format: binding, HIV-1; conditions: 20° C.

In the case of `CN1CCN(c2ccc3[nH]c(-c4ccc5[nH]c(-c6ccc(O)cc6)nc5c4)nc3c2)CC1` [Hoechst 33258], the “5% Toxicity microM” value (cells) is given as 18 µM, the Kd [1] is given as under 0.1 µM and the IC50 (HIV-1 TAR RNA; Table 17) is given as 6.6 ± 1.5 µM. For the same compound, the Maximum protection (HIV) was 2%, the “concentration at which maximum protection achieved, microM” value (HIV) was “(2) microM” and the “Binding Constant” value (TAR [2]) was 420000 M⁻¹.
In the case of `[H]/N=C(/N)N[C@H]1[C@H](O)[C@@H](O)[C@H](O[C@@H]2O[C@@H](C)[C@](O)(C=O)[C@H]2O[C@@H]2O[C@@H](CO)[C@H](O)[C@@H](O)[C@@H]2NC)[C@@H](N/C(N)=N\[H])[C@@H]1O` [DPA 506, streptomycin, reference compound], the IC50 (HIV-1 TAR RNA; Table 18) is listed as 17.4 ± 4.3 µM, the IC50 (HIV-1 RRE RNA) is listed as over 500 µM and the IC50 (TAR RNA [3]) is listed as 9.5 ± 0.8 µM.
For `N=C(N)NCCC[C@H](N)C(N)=O` [argininamide], the Kd (TAR [4]) is given as about 0.001 µM.
In the case of neomycin, the ΔTm (TAR RNA [5]) is listed as 0.2 °C, the IC50 (HIV-1 TAR RNA; Table 17) is listed as 0.713 ± 0.165 µM and the Kd (TAR [6]) is listed as about 6 µM. For the same compound, the IC50 (TAR RNA [3]) was 0.92 ± 0.09 µM, the Maximum protection (HIV) was 9% and the “concentration at which maximum protection achieved, microM” value (HIV) was “(206) microM”. The K (TAR RNA [7]) was “(6.61 ± 0.84) × 10^5” and the “Binding Constant” value (TAR [2]) was 170000 M⁻¹.
